Data set [1] deals with production of Abeta1-x peptides in H4 neuroglioma cell line stably expressing human APP. Briefly: H4-APPwt Cell-Based Assay (Assay 2), Abeta1-x production. The following applies: H4 neuroglioma cells expressing human APP, Abeta1-x; read-out: H4-APPwt cell IC50 nM (assay 2). On the procedure: H4-APPwt Cell-Based Assay (Assay 2)
Cellular potency of the compounds of the invention was assessed in an assay monitoring production of Abeta1-x peptides in the H4 neuroglioma cell line (ATCC, Cat. #HTB-148) stably expressing human APP, using an immunoassay such as AlphaLISA (PerkinElmer, Cat.# AL288). Tested compounds were dissolved in DMSO and pre-diluted in the culture medium (DMEM containing 10% FBS and 1% penicillin/streptomycin) to achieve twice the final concentration of the compounds in the assay. Equal volumes of the 2× solutions of the tested compounds and cell suspension were added to a 96-well culture plate, so that each well contained ˜10,000 cells in a final volume of 200 μl. Final concentration of DMSO in the assay was 0.2%. The plates were incubated for 5 hrs at 37° C., 5% CO2 to allow cells to attach to the bottom of the wells in the presence of the tested compounds. Then the media was removed and replaced with fresh media containing tested compounds at the same final concentration. The plates were incubated for 18 hrs at 37° C., 5% CO2. Concentrations of Ab1-x were determined using AlphaLISA immunoassay (PerkinElmer, Cat.# AL288) following manufacturer's protocol. Concentrations of Abeta1-x in the wells containing either DMSO or 10 μM beta-secretase inhibitor (BACE inhibitor IV, EMD Bioscience, Cat. #565788) were used as uninhibited and background controls, correspondingly, for calculating percent inhibition values for each well with the tested compounds.

Data set [2] has as its target hERG (Homo sapiens (Human), UniProt Q12809). Briefly: hERG-Channel Assay (Assay 3), whole-cell patch clamp. Type of data set: cell-based. As to conditions: human, HEK293 cells stably transfected with hERG, pH 7.4; 10 μM, HEK293 cells transfected with hERG. From the text: hERG-Channel Assay (Assay 3)
HEK (human embryonic kidney) 293 cells were stably transfected with hERG cDNA.
Cells were superfused with a bath solution containing (mM): NaCl (137), KCl (4.0), MgCl2 (1.0), CaCl2 (1.8), Glucose (10), HEPES (10), pH 7.4 with NaOH. Patch pipettes were made from borosilicate glass tubing using a horizontal puller and filled with pipette solution containing (mM): K-aspartate (130), MgCl2 (5.0), EGTA (5.0), K2ATP (4.0), HEPES (10.0), pH 7.2 with KOH. Resistance of the microelectrodes was in the range between 2 and 5 MΩ.
Membrane currents were recorded using an EPC-10 patch clamp amplifier and PatchMaster software. hERG-mediated membrane currents were recorded at 35° C., using the whole-cell configuration of the patch-clamp technique. Transfected HEK293 cells were clamped at a holding potential of −60 mV and hERG-mediated inactivating tail currents were elicited using a pulse pattern with fixed amplitudes (activation/inactivation: 40 mV for 2000 ms; recovery: −120 mV for 2 ms; ramp to 40 mV in 2 ms; inactivating tail current: 40 mV for 50 ms) repeated at 15 s intervals. During each inter-pulse interval 4 pulses scaled down by a factor of 0.2 were recorded for a P/n leak subtraction procedure. Rs compensation was employed up to a level that safely allowed recording devoid of ringing.
The different concentrations of the test compound were applied sequentially on each of the different cells investigated. A steady state level of baseline current was measured for at least 6 sweeps prior to the application of the first test compound concentration.
The test compound was dissolved in DMSO to yield a master stock solution which was diluted further in DMSO to stock solutions needed for the lower concentrations. Final dilutions in extracellular buffer were prepared freshly from these stocks by a 1:1000 dilution step each before starting the experiments.
Peak current amplitudes were measured 3 ms after the ramp to +40 mV. For baseline and each concentration the peak currents of the three last sweeps before application of the next concentration were averaged. Residual currents (I/I0) were calculated for each cell as the fraction of actual average peak current and average baseline peak current. Results are presented as percent (%) inhibition (1−I/I0)*100% at 10 μM.
For orientation: The hERG channel carries a current that helps repolarise heart muscle cells.

The nature of data set [3]: In Vitro Phospholipidosis Assay (Assay 4), Nile red staining. Type of data set: cell-based. The following applies: human, first effect concentration, U937 cells, read-out: Phospholipidosis FEC IC50 μM (assay 4). The procedure: In Vitro Phospholipidosis Assay (Assay 4)
The phospholipidogenic potential of test compounds was assayed using the human hematopoetic U937 cell line. The test principle was to analyze the phospholipid content by staining the cells with the fluorescent dye Nile red.
U937 cells were seeded into cell culture plates at 0.5×10^6 cells/mL in RPMI medium containing 10% FBS, 1% DMSO, and 0.005% gentamicin. The cells were then cultivated with or without different concentrations of test compounds for 48 h under standard culture conditions.
For harvesting the cells were centrifuged at 130×g for 4 min and washed once with PBS. Then 2×0.5 mL cell suspension was prepared for non-fixed cell measurement (0.5 mL for propidium iodide (PI) viability measurement and 0.5 mL for Nile red measurement).
The remaining cells were fixed with 3.7% formaldehyde for 30 min. After a further centrifugation step cells were resuspended with 1.3 mL Nile red working solution (1 μg/mL) and incubated for 5 min at rt. The cell suspension was then washed twice with 3 mL PBS and centrifuged with 130×g for 4 min. The supernatant was discarded and the cells were resuspended with 0.5 mL PBS and kept for flow cytometry measurement. For Nile red staining of the 0.5 mL non-fixed cell samples, 50 μL of a ready to use Nile red solution (10 μg/mL) were added per sample. Samples were kept on ice for 5 min. Thereafter, they were washed once with 4 mL PBS (4° C., 250×g for 8 min) and finally resuspended in 400 μL PBS and kept for flow cytometry measurement.
For the viability measurement, 12.5 μL of the ready to use PI solution (10 μg/mL) were added to the 0.5 mL non-fixed cell suspension. After 15 min of incubation on ice, the samples were measured by flow cytometry using a Coulter Epics XL/MCL flow cytometer.
The viability of the cells of each sample was determined by flow cytometry measurement of the PI content at channel 2 (568-590 nm). Cut-off gates for the fluorescence-dependent differentiation between live and dead cells were defined based on the analysis of cell culture medium control samples.
Only samples with a cell viability of >=90% relative to control samples were analyzed for phospholipidosis. For that, each Nile red sample (non-fixed and fixed samples) was measured by flow cytometry at channel 1 (504-541 nm) and channel 4 (660-680 nm).
For each channel, relative Nile red fluorescence intensity of a test sample was calculated compared to control samples and expressed as percentage of control fluorescence intensity. The assessment of the phospholipidogenic potential and the first effect concentration (FEC) of a test compound was done manually based on the fluorescence intensities at both wavelengths for the fixed cells as well as for the non-fixed cells.

Some results are limits rather than exact numbers.

hERG, sequence (Q12809 whole entry): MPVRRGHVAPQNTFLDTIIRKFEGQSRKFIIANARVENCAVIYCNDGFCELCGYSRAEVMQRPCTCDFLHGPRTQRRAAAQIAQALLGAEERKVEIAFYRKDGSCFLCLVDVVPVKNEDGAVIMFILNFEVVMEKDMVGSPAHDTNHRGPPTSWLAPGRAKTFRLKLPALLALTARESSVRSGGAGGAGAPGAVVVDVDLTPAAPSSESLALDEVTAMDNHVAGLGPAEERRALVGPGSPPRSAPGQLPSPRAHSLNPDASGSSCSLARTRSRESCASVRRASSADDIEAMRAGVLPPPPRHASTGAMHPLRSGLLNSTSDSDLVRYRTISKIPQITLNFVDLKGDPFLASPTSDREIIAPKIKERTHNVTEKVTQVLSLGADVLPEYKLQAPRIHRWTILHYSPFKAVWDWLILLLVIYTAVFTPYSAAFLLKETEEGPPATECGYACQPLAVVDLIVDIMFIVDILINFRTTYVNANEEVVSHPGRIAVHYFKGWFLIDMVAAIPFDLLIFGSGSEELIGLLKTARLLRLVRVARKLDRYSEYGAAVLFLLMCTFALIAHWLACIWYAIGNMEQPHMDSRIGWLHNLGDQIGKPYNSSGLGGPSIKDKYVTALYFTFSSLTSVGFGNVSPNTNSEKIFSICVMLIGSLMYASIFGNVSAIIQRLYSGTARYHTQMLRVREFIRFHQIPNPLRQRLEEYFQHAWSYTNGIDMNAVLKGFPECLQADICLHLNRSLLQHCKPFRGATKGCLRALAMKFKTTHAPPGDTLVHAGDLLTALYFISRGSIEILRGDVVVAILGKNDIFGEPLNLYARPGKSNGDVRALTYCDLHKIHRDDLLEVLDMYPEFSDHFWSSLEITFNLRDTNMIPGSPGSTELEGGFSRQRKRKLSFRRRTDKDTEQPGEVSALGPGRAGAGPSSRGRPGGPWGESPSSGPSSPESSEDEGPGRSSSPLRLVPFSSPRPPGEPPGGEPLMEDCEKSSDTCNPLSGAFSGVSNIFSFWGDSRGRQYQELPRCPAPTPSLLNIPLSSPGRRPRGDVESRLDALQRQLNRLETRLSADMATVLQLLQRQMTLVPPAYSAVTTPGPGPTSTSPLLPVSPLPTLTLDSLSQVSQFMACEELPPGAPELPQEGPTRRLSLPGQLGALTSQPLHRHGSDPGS

In the case of `CO[C@H]1[C@H](C)C[C@@]2(Cc3ccc(C#N)cc3[C@]23N=C(N)N(C[C@@H]2CCO2)C3=O)C[C@@H]1C` (stereo in doubt) [Example 18], the IC50 in data set [1] is 1.02 nM. Besides, in data set [2], testing at 10 µM gave an inhibition of 17%. The IC50 at 48 h in data set [3] is above 400 µM.

In the case of `CC[C@@H]1C[C@]2(CC[C@H]1OC)Cc1ccc(C#N)cc1[C@]21N=C(N)N(CC2CCOCC2)C1=O` [Example 2], in data set [1], the IC50 amounted to 0.29 nM. This compound registered an inhibition at 10 µM in data set [2] of 22%. In data set [3], the IC50 at 48 h came to 200 µM.

With `CC[C@@H]1C[C@]2(CC[C@H]1OC)Cc1ccc(C#N)cc1[C@]21N=C(N)N(CC2(F)CCOCC2)C1=O` [Example 4], the IC50 in data set [1] came out at 0.28 nM. In data set [2], this compound had an inhibition at 10 µM of 0%. The IC50 at 48 h in data set [3] is above 400 µM.

Consider `CO[C@H]1CC[C@@]2(Cc3ccc(C#N)cc3[C@]23N=C(N)N(CC2(C)COC2)C3=O)C[C@@H]1C` [Example 8], for which the IC50 in data set [1] was found to be 0.49 nM. This compound displayed an inhibition at 10 µM in data set [2] of 16%. For the same compound, the IC50 at 48 h in data set [3] was above 200 µM.

As to `CO[C@H]1CC[C@@]2(Cc3ccc(C#N)cc3[C@]23N=C(N)N(Cc2ccncn2)C3=O)C[C@@H]1C` [Example 9], the IC50 in data set [1] was found to be 1.9 nM. The same compound yielded an inhibition at 10 µM in data set [2] of 16%. Also, in data set [3], the IC50 at 48 h came out at 400 µM.

Consider `CO[C@H]1[C@H](C)C[C@@]2(Cc3ccc(C#N)cc3[C@]23N=C(N)N(C2COC2)C3=O)C[C@@H]1C` [Example 12], for which the IC50 in data set [1] was found to be 1.1 nM. Further, 10 µM produced 11% inhibition in data set [2]. Also, the IC50 at 48 h in data set [3] was determined as 400 µM.

In the case of `CO[C@H]1[C@H](C)C[C@@]2(Cc3ccc(C#N)cc3[C@]23N=C(N)N(CC2COC2)C3=O)C[C@@H]1C` [Example 13], in data set [1], the IC50 is 0.92 nM. The inhibition at 10 µM in data set [2] was 18%. The IC50 at 48 h in data set [3] turned out to be 200 µM.

In the case of `CO[C@H]1[C@H](C)C[C@@]2(Cc3ccc(C#N)cc3[C@]23N=C(N)N(C[C@H]2CCCO2)C3=O)C[C@@H]1C` [Example 14], the IC50 in data set [1] worked out at 0.12 nM. Also, the inhibition at 10 µM in data set [2] stood at 20%. Moreover, in data set [3], the IC50 at 48 h was above 200 µM.

As for `CO[C@H]1[C@H](C)C[C@@]2(Cc3ccc(C#N)cc3[C@]23N=C(N)N(C[C@@H]2CCCO2)C3=O)C[C@@H]1C` [Example 15], in data set [1], the IC50 amounted to 0.11 nM. Moreover, in data set [2], the inhibition at 10 µM came out at 11%. In addition, the IC50 at 48 h in data set [3] was 200 µM.

For `CO[C@H]1[C@H](C)C[C@@]2(Cc3ccc(C#N)cc3[C@]23N=C(N)N(CC(C)(C)F)C3=O)C[C@@H]1C` [Example 17], the IC50 in data set [1] was 0.89 nM. This compound also displayed an inhibition at 10 µM in data set [2] of 12%. Also, the IC50 at 48 h in data set [3] is above 200 µM.

As for `CO[C@H]1[C@H](C)C[C@@]2(Cc3ccc(C#N)cc3[C@]23N=C(N)N(C[C@@H]2COCCO2)C3=O)C[C@@H]1C` [Example 21], in data set [1], the IC50 is 0.48 nM. This compound yielded an inhibition at 10 µM in data set [2] of 24%. In addition, the IC50 at 48 h in data set [3] worked out at 400 µM.

With `CO[C@H]1[C@H](C)C[C@@]2(Cc3ccc(C#N)cc3[C@]23N=C(N)N(C[C@H]2COCCO2)C3=O)C[C@@H]1C` [Example 22], the IC50 in data set [1] amounted to 0.26 nM. In data set [2], this compound came in with an inhibition at 10 µM of 9%. The IC50 at 48 h in data set [3] is above 400 µM.

For the compound `CO[C@H]1[C@H](C)C[C@@]2(Cc3ccc(C#N)cc3[C@]23N=C(N)N(CC2(F)CCOCC2)C3=O)C[C@@H]1C` [Example 23], in data set [1], the IC50 stood at 0.18 nM. This compound also yielded an inhibition at 10 µM in data set [2] of 16%. For the same compound, in data set [3], the IC50 at 48 h was above 200 µM.

Take `CC[C@@H]1C[C@@]2(Cc3ccc(C#N)cc3[C@]23N=C(N)N(CC(C)(C)F)C3=O)C[C@H](C)[C@H]1OC` [Example 26]: in data set [1], the IC50 amounted to 0.2 nM. This compound came in with an inhibition at 10 µM in data set [2] of 8%. Also, the IC50 at 48 h in data set [3] is above 200 µM.

As a reminder, the IC50 is the concentration that inhibits the measured activity by half. The inhibition is the drop in the measured response relative to a control, in per cent. A higher inhibition goes with a response far below the control.

(Values after US8981112B2, “Inhibitors of β-secretase” (Boehringer Ingelheim International GmbH, priority 2012, dated 2015).)
